Patent US5888475A, “Labeled cocaine analogs” (Emory University, priority 1997, dated 1999)
Read-outs that look alike come from different tables or passages of the source.

Assays:
dopamine transporter = biological target: T1, dopamine transporter (Rattus norvegicus, UniProt P23977); assay: In vitro binding: displacement of [3H]WIN 35,428 in rat striatal homogenate; settings: displacement of [3H]WIN 35,428, rat striatal homogenate; read-out: calculated binding constant with dopamine transporter
T1 construct: in a rat striatal homogenate preparation; from tissue; host or cells: rat striatum (homogenate)
T1 sequence (P23977 whole entry): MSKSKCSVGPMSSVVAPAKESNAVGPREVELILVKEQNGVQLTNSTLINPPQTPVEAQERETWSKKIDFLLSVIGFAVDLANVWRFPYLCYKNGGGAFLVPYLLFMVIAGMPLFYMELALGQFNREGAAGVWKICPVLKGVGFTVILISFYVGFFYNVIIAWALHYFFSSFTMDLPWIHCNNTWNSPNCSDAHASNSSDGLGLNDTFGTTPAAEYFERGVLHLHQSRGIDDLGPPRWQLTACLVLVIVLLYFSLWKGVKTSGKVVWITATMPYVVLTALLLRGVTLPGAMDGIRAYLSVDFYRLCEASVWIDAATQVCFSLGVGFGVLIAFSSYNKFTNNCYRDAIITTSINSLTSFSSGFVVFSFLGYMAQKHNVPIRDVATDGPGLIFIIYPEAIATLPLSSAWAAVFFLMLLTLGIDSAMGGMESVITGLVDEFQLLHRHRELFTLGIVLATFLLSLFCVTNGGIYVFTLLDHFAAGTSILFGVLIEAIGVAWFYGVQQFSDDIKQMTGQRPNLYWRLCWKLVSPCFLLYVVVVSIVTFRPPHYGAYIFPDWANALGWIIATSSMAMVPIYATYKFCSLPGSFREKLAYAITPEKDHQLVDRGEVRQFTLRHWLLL
Method: (§1) In vivo distribution of a compound of the invention, [^18 F]-2β-carbo-2'-fluoroisopropoxy-3β-(4-iodophenyl)tropane (FIPIT) 8 (X=4-iodophenyl; Y=1'fluoro-isopropoxy) was measured, as well as brain PET imaging to determine suitability of the compound as a label. Also, in vitro binding studies were conducted, measuring the ability of FIPIT to displace [^3 H]WIN 35,428 (III) in a rat striatal homogenate preparation. These studies provided a calculated binding constant for FIPIT 8 with dopamine transporter of 1.13 nM. […] Region of interest measurements determined striatal to cerebellum ratios to be 3.0 at 190 min post administration. In the in vivo distribution studies, the distribution of radioactivity was expressed as percent dose per gram in tissues of unfasted male Sprague Dawley rats at 2 min, 30 min, 60 min and 120 min after intravenous administration of [^18 F] FIPIT 8. The results are shown in Table I. The initial level of accumulation of radioactivity in the striatum, a region rich in dopamine transporters, after injection of [^18 F] FIPIT 8 was high, 0.84% of injected dose/gram at 2 min, and decreased slowly to 0.50% of injected dose/gram at 120 min. […] However, the amount of radioactivity in the cerebellum and cortex at 120 min decreased to only 0.14% dose/gram and 0.26% dose/gram respectively resulting in a striatum to cerebellum ratio of 3.71 and a striatum to cortex ratio of 2.0.

[1] = Brain PET imaging with [18F]-FIPIT in a rhesus monkey; assay type: in vivo
Method: as §1

[2] = In vivo tissue distribution of radioactivity after intravenous administration; design: species or system Sprague Dawley rats; settings: rat, i.v.; for tissue uptake at 2 min / tissue uptake at 0.5 h / tissue uptake at 1 h / tissue uptake at 2 h: iv
Method: as §1

## CC(CF)OC(=O)[C@H]1[C@@H](c2ccc(I)cc2)C[C@@H]2CC[C@H]1N2C (stereo partly drawn) [FIPIT 8]
Dopamine transporter
  Ki: 1.13 nM

## CC(C[18F])OC(=O)[C@H]1[C@@H](c2ccc(I)cc2)C[C@@H]2CC[C@H]1N2C (stereo partly drawn) [[^18 F] FIPIT 8, Fluorine-18 labeled2β-carbo-1'-fluoroisopropoxy-3β-(4-iodophenyl)tropane]
[1]
  brain region of highest uptake (basal ganglia/striatum): region of highest uptake in the brain
[1]; 190 min following injection
  retention in basal ganglia (striatum): prolonged retention with clear visualization at 190 min
[1]; 190 min post administration
  striatal to cerebellum ratio (region of interest measurements): 3.0
[2]; blood, 2 min, read-out: Blood, Mean % Injected Dose/Gram
  tissue uptake at 2 min: 0.14 %ID/g
[2]; blood, 30 min, read-out: Blood, Mean % Injected Dose/Gram
  tissue uptake at 0.5 h: 0.03 %ID/g
[2]; blood, 60 min, read-out: Blood, Mean % Injected Dose/Gram
  tissue uptake at 1 h: 0.03 %ID/g
[2]; blood, 120 min, read-out: Blood, Mean % Injected Dose/Gram
  tissue uptake at 2 h: 0.04 %ID/g
[2]; bone, 2 min, read-out: Bone, Mean % Injected Dose/Gram
  tissue uptake at 2 min: 0.28 %ID/g
[2]; bone, 30 min, read-out: Bone, Mean % Injected Dose/Gram
  tissue uptake at 0.5 h: 0.21 %ID/g
[2]; bone, 60 min, read-out: Bone, Mean % Injected Dose/Gram
  tissue uptake at 1 h: 0.17 %ID/g
[2]; bone, 120 min, read-out: Bone, Mean % Injected Dose/Gram
  tissue uptake at 2 h: 0.25 %ID/g
[2]; brain, 2 min, read-out: Brain (B), Mean % Injected Dose/Gram
  tissue uptake at 2 min: 0.83 %ID/g
[2]; brain, 30 min, read-out: Brain (B), Mean % Injected Dose/Gram
  tissue uptake at 0.5 h: 0.53 %ID/g
[2]; brain, 60 min, read-out: Brain (B), Mean % Injected Dose/Gram
  tissue uptake at 1 h: 0.31 %ID/g
[2]; brain, 120 min, read-out: Brain (B), Mean % Injected Dose/Gram
  tissue uptake at 2 h: 0.28 %ID/g
[2]; cerebellum, 2 min, read-out: Cerebell (C), Mean % Injected Dose/Gram
  tissue uptake at 2 min: 0.76 %ID/g
[2]; cerebellum, 30 min, read-out: Cerebell (C), Mean % Injected Dose/Gram
  tissue uptake at 0.5 h: 0.3 %ID/g
[2]; cerebellum, 60 min, read-out: Cerebell (C), Mean % Injected Dose/Gram
  tissue uptake at 1 h: 0.16 %ID/g
[2]; cerebellum, 120 min, read-out: Cerebell (C), Mean % Injected Dose/Gram
  tissue uptake at 2 h: 0.14 %ID/g
[2]; cortex, 2 min, read-out: Cortex (Cx), Mean % Injected Dose/Gram
  tissue uptake at 2 min: 0.98 %ID/g
[2]; cortex, 30 min, read-out: Cortex (Cx), Mean % Injected Dose/Gram
  tissue uptake at 0.5 h: 0.53 %ID/g
[2]; cortex, 60 min, read-out: Cortex (Cx), Mean % Injected Dose/Gram
  tissue uptake at 1 h: 0.28 %ID/g
[2]; cortex, 120 min, read-out: Cortex (Cx), Mean % Injected Dose/Gram
  tissue uptake at 2 h: 0.26 %ID/g
[2]; heart, 2 min, read-out: Heart, Mean % Injected Dose/Gram
  tissue uptake at 2 min: 1.7 %ID/g
[2]; heart, 30 min, read-out: Heart, Mean % Injected Dose/Gram
  tissue uptake at 0.5 h: 0.14 %ID/g
[2]; heart, 60 min, read-out: Heart, Mean % Injected Dose/Gram
  tissue uptake at 1 h: 0.1 %ID/g
[2]; heart, 120 min, read-out: Heart, Mean % Injected Dose/Gram
  tissue uptake at 2 h: 0.12 %ID/g
[2]; kidney, 2 min, read-out: Kidney, Mean % Injected Dose/Gram
  tissue uptake at 2 min: 2.61 %ID/g
[2]; kidney, 30 min, read-out: Kidney, Mean % Injected Dose/Gram
  tissue uptake at 0.5 h: 0.85 %ID/g
[2]; kidney, 60 min, read-out: Kidney, Mean % Injected Dose/Gram
  tissue uptake at 1 h: 0.44 %ID/g
[2]; kidney, 120 min, read-out: Kidney, Mean % Injected Dose/Gram
  tissue uptake at 2 h: 0.3 %ID/g
[2]; liver, 2 min, read-out: Liver, Mean % Injected Dose/Gram
  tissue uptake at 2 min: 1.5 %ID/g
[2]; liver, 30 min, read-out: Liver, Mean % Injected Dose/Gram
  tissue uptake at 0.5 h: 3.89 %ID/g
[2]; liver, 60 min, read-out: Liver, Mean % Injected Dose/Gram
  tissue uptake at 1 h: 5.2 %ID/g
[2]; liver, 120 min, read-out: Liver, Mean % Injected Dose/Gram
  tissue uptake at 2 h: 4.46 %ID/g
[2]; lung, 2 min, read-out: Lung, Mean % Injected Dose/Gram
  tissue uptake at 2 min: 6.21 %ID/g
[2]; lung, 30 min, read-out: Lung, Mean % Injected Dose/Gram
  tissue uptake at 0.5 h: 0.61 %ID/g
[2]; lung, 60 min, read-out: Lung, Mean % Injected Dose/Gram
  tissue uptake at 1 h: 0.4 %ID/g
[2]; lung, 120 min, read-out: Lung, Mean % Injected Dose/Gram
  tissue uptake at 2 h: 0.46 %ID/g
[2]; muscle, 2 min, read-out: Muscle, Mean % Injected Dose/Gram
  tissue uptake at 2 min: 0.12 %ID/g
[2]; muscle, 30 min, read-out: Muscle, Mean % Injected Dose/Gram
  tissue uptake at 0.5 h: 0.13 %ID/g
[2]; muscle, 60 min, read-out: Muscle, Mean % Injected Dose/Gram
  tissue uptake at 1 h: 0.04 %ID/g
[2]; muscle, 120 min, read-out: Muscle, Mean % Injected Dose/Gram
  tissue uptake at 2 h: 0.08 %ID/g
[2]
  washout from brain regions other than striatum: rapid washout in all other brain regions
[2]; 2 min
  Bone, Mean % Injected Dose/Gram: 0.28 % Injected Dose/Gram
  Cerebell (C), Mean % Injected Dose/Gram: 0.76 % Injected Dose/Gram
  Cortex (Cx), Mean % Injected Dose/Gram: 0.98 % Injected Dose/Gram
  St/C (striatum to cerebellum ratio): 1.12
  St/Cx (striatum to cortex ratio): 0.86
  Striatum (St), Mean % Injected Dose/Gram: 0.84 % Injected Dose/Gram
[2]; 2 min to 120 min
  in vivo defluorination (from bone radioactivity): stability of the 2β-fluoroisopropyl group to significant in vivo defluorination
[2]; 30 min
  St/C (striatum to cerebellum ratio): 2.42
  St/Cx (striatum to cortex ratio): 1.38
[2]; 60 min
  St/C (striatum to cerebellum ratio): 3.63
  St/Cx (striatum to cortex ratio): 2.13
[2]; 120 min
  Bone, Mean % Injected Dose/Gram: 0.25 % Injected Dose/Gram
  Cerebell (C), Mean % Injected Dose/Gram: 0.14 % Injected Dose/Gram
  Cortex (Cx), Mean % Injected Dose/Gram: 0.26 % Injected Dose/Gram
  St/C (striatum to cerebellum ratio): 3.71
  St/Cx (striatum to cortex ratio): 2.0
  Striatum (St), Mean % Injected Dose/Gram: 0.50 % Injected Dose/Gram
[2]; 120 min, listed as [^18 F] FIPIT (8)
  St/Cx (striatum to cortex ratio): 2.00
[2]; spleen, 2 min, read-out: Spleen, Mean % Injected Dose/Gram
  tissue uptake at 2 min: 1.58 %ID/g
[2]; spleen, 30 min, read-out: Spleen, Mean % Injected Dose/Gram
  tissue uptake at 0.5 h: 0.64 %ID/g
[2]; spleen, 60 min, read-out: Spleen, Mean % Injected Dose/Gram
  tissue uptake at 1 h: 0.4 %ID/g
[2]; spleen, 120 min, read-out: Spleen, Mean % Injected Dose/Gram
  tissue uptake at 2 h: 0.38 %ID/g
[2]; striatum, 2 min, read-out: Striatum (St), Mean % Injected Dose/Gram
  tissue uptake at 2 min: 0.84 %ID/g
[2]; striatum, 30 min, read-out: Striatum (St), Mean % Injected Dose/Gram
  tissue uptake at 0.5 h: 0.73 %ID/g
[2]; striatum, 60 min, read-out: Striatum (St), Mean % Injected Dose/Gram
  tissue uptake at 1 h: 0.58 %ID/g
[2]; striatum, 120 min, read-out: Striatum (St), Mean % Injected Dose/Gram
  tissue uptake at 2 h: 0.5 %ID/g
[2]; testis, 2 min, read-out: Testis, Mean % Injected Dose/Gram
  tissue uptake at 2 min: 0.14 %ID/g
[2]; testis, 30 min, read-out: Testis, Mean % Injected Dose/Gram
  tissue uptake at 0.5 h: 0.68 %ID/g
[2]; testis, 60 min, read-out: Testis, Mean % Injected Dose/Gram
  tissue uptake at 1 h: 0.17 %ID/g
[2]; testis, 120 min, read-out: Testis, Mean % Injected Dose/Gram
  tissue uptake at 2 h: 0.19 %ID/g
